One block for each molecule: values may come before it. Positions of bridges follow the written chain, without caps; N, C: chain ends. No end group written: not given here.
Tests used:
guard cell = conditions: cited from earlier work
Excerpt: A PNP_CAT interaction in plant responses to infecting pathogens is not surprising. CATs commonly function to down-regulate ROS during ABA-induced stomatal closure, and ABA-induced stomatal closure can be inhibited by removal of H2O2 via CAT2[73],[74]. […] Therefore, it is tempting to speculate that AtPNP-A modulates the effect of ABA on stomatal aperture through the interaction w ...

cGMP = conditions: cited from earlier work
Excerpt: Similarly, identification of novel receptors targeted by an increasing number of peptidic plant hormones discovered in the last few decades[8],[9] is anticipated. One of those, the plant natriuretic peptides (PNPs), are a group of systemically mobile signals[10] that have a role in the maintenance of salt and water balance[11],[12]. An A. thaliana PNP, termed AtPNP-A (At2g18660; Q9ZV52), has been implicated in several physiological processes ranging from the regulation of stomatal aperture, osmoticum-dependent volume changes[13],[14] and modulation of developmental stage- and tissue-specif ... || A PNP_CAT interaction in plant responses to infecting pathogens is not surprising. CATs commonly function to down-regulate ROS during ABA-induced stomatal closure, and ABA-induced stomatal closure can be inhibited by removal of H2O2 via CAT2[73],[74]. […] Therefore, it is tempting to speculate that AtPNP-A modulates the effect of ABA on stomatal aperture through the interaction w ...

CAT2 transcript = conditions: exogenous application; cited from earlier work
Excerpt: (§1) It is also conceivable that modulation of CAT2 activity by AtPNP-A may not only have implications for plant biotic stress tolerance but may also result in changes in responses to abiotic stress. Activity of CAT2 is required for decomposition of photorespiration-derived H2O2 preventing redox perturbation under ambient growth conditions[59] while CAT2 deficiency causes a defective photorespiration phenotype including suppressed growth[58],[59] and accumulation of H2O2 in leaves. During senescence suppression of CAT2 function, mediated by G-BOX BINDING FACTOR1 (GBF1)[76], decreases CAT2 activ ...

plant pathogen = conditions: exogenous H2O2; cited from earlier work
[1] = test system: AtPNP-A-deficient seedlings; conditions: cited from earlier work
Excerpt: as §1

[2] = molecular target: T1, recombinant catalase 2 (rCAT2), N-terminally 6xHis-tagged (A. thaliana, UniProt P25819 1-492); test: SPR; Biacore T100, 20 °C; His-tagged rCAT2 immobilised on the NTA sensor chip (app. 4,500 RU), peptides injected at the same concentration; unmodified reference surface; conditions: both partners purified
T1 construct: catalase 2 (CAT2), A. thaliana; held on the NTA chip by its His tag; also called CAT2 recombinant protein; His-tagged rCAT2; source: E. coli BL21 (DE3) One Shot, purified (Ni-NTA beads, HisTrap HP column); not shown: 6xHis, N-terminal, kept
T1 sequence (looked up): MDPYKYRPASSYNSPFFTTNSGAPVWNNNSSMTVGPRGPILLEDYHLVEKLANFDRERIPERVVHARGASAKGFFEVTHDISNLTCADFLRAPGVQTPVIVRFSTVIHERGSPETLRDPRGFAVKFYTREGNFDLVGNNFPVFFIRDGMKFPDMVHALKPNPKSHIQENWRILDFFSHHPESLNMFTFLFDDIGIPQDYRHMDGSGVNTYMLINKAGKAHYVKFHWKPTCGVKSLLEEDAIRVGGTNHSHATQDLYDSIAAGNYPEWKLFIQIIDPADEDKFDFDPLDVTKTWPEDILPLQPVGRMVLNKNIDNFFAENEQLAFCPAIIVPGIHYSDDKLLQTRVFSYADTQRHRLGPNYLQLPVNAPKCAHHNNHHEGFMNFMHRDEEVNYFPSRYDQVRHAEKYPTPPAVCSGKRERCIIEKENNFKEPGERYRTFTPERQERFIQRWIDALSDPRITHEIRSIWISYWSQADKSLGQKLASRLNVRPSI

[3] = molecular target: T2, bovine liver CAT (C-40; Sigma) (bovine, UniProt P00432 1-527); test: SPR; Biacore T100, 20 °C, flow 100 μL/min; bovine liver CAT amine-coupled to Series S CM5 chip, pAtPNP-A at 3.78 μM and consecutive twofold dilutions (11 injections); regeneration with glycine pH 2.0; kinetic analysis; conditions: both partners purified
T2 construct: catalase from bovine liver; also called bovine CAT; bovine liver catalase; source: bought: Sigma (C-40), bovine liver
T2 sequence (looked up): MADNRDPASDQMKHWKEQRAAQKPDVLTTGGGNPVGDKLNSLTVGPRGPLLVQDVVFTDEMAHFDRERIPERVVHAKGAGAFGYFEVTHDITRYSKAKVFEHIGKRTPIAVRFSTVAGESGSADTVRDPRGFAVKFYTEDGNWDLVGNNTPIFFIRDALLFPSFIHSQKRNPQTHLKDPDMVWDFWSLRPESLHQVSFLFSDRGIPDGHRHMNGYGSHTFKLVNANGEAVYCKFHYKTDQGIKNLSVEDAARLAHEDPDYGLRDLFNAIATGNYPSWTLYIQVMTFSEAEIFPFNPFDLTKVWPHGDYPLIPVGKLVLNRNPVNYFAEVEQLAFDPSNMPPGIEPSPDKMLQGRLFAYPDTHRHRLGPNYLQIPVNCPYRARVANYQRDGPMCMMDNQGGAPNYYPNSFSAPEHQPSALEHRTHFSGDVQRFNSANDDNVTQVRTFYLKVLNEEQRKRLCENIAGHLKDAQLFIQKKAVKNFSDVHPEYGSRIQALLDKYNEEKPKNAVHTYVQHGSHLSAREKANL

Molecule: CC1=CC(=O)CC(C)(C)[C@@]1(O)/C=C/C(C)=C\C(=O)O [ABA, abscisic acid, reference compound]
- Effect of ABA on AtPNP-A-dependent guard cell volume increases (guard cell): no effect
- Effect of ABA on AtPNP-A-dependent cGMP increases (cGMP): no effect

Molecule: OO [H2O2, hydrogen peroxide]
- CAT2 transcript (CAT2 transcript): Increases in CAT2 transcript
- Plant pathogen resistance (plant pathogen): enhances plant pathogen resistance

Molecule: C[n+]1ccc(-c2cc[n+](C)cc2)cc1 [methyl viologen]
- Chlorosis in AtPNP-A-deficient seedlings [1]: extensive chlorosis
- CAT2 transcript (CAT2 transcript): Increases in CAT2 transcript

- binding result [2]: binds
- Kd [3]: 86 nM
B1: pAtPNP-A, synthetic peptide with the active region of AtPNP-A, as used in SPR, ITC and the catalase activity assay (peptide, UniProt Q9ZV52 33-66, looked up)
peptide: YDPPYTRSACYGTQRETLVVGVKNNLWQNGRACG
modifications: disulfide 10-33 (inferred); not fully specified
notes: AtPNP-A (plant natriuretic peptide A), A. thaliana, active region, amino acids 33-66; peptides were made with or without a C-terminal biotin tag; also called biologically active fragment of AtPNP-A; source: synthetic peptide (GenScript, purity > 95%)
